According to EP0494754A1, “3-hydroxypyridin-4-one derivatives as pharmaceutical compositions” (BRITISH TECHNOLOGY GROUP LTD, priority 1991, dated 1992):

What was measured:
Type in all cases: cell-based
[1] = test system: P. falciparum; test: Inhibition of growth of P. falciparum in red cell culture (tritiated hypoxanthine uptake, continuous exposure to chelator)
Procedure: (A) An uncloned strain of P. falciparum, ITO4, was grown on blood group O red cells using a modification of the method described by Trager et al in Science, 1976, […], 673. An atmopshere consisting of 1% oxygen, 3% carbon dioxide and 96% nitrogen was maintained throughout the experiments. Red cells were suspended at a hematocrit of 3% in RPMI 1640 that had been supplemented with 10% v/v human serum, 2 g/l glucose, 4 mM NaOH, 25 µg/ml gentamicin, 1.9 mM glutamine and 25 mM HEPES to form complete medium. For experimental purposes the red cells were then further diluted with the same medium to a final hematocrit of 1.5%. Synchronised parasite cultures were obtained using a combination of sorbitol lysis and gelatin flotation, as described respectively by Jensen et al in Am. J. Trop. Med. Hyg., 1978, 27, 1274 and Lambros et al in J. Parasitol., 1979, 65, 418, thus ensuring that only young ring forms remained. The starting parasitemia in each experiment was between 0.1 and 0.5%.
A red cell suspension containing only recently synchronised ring parasites was treated with 0.2 µCi of tritiated hypoxanthine per 100 µl of red cell suspension and one of ten chelating agents as identified in the Table was added in complete medium to the suspension in an amount such as to produce an iron binding concentration of 100 µmol of iron per litre (all of the chelators combine with iron in a ratio of 3 moles of chelator:1 mole of iron apart from the chelator number 10, desferrioxamine, which combines in a 1:1 molar ratio). The test cultures were immediately dispersed in 200 µl aliquots into 96 well microculture plates. Each chelator was tested in three or more wells and the whole experiment was carried out at least twice for each chelator. Control cultures were used in each experiment which contained no iron chelator.
The growth of the P. falciparum parasites was assessed both by light microscopy examination of thin films that had been stained with Giemsa and through measurement of tritiated hypoxanthine uptake, the cell cultures being harvested onto glass fibre filters and radioactivity, in terms of beta emission from each well, being measured in a flat bed liquid scintillation counter as described by Potter et al in Phys. Med. Biol., 1986, 31(4), 361.
The chelators tested consisted of 1-(2′-carboxyethyl)-3-hydroxy-2-methylpyridin-4-one (R₁ = CH₂CH₂CO₂H, R₂ = CH₃, R₃ = R₄ = H; compound 1) and, for the purposes of comparison with this chelator, nine other chelators not of formula (I) as defined hereinbefore, of which compounds 2 to 9 are 3-hydroxypyridin-4-ones and compound 10 is desferrioxamine. […] These findings were supported by a morphological examination of red cells sampled from the cultures. […] (B) The effect of using different dosage levels than the 100 µmol/l level used in (A) was studied employing the same procedure but using four dosage levels of 10 µmol/l, 25 µmol/l, 50 µmol/l and […]. Only the eight chelators which produced an inhibitory effect at 100 µmol/l were studied and controls containing no iron chelator were again employed.

[2] = test system: MEL cells, clone 585; test: Inhibition of growth of murine erythroleukaemia (MEL) cells, cell counting; settings: 50 µmol/l iron binding concentration; after 30 hours; Figure 2
Procedure: MEL cells, clone 585, were grown in suspension culture at 37°C in RPMI 1640 that had been supplemented with 13% v/v foetal calf serum, 25 µl/ml gentamicin, 1.9 mM glutamine and 2% diaminopurine as described by Peto et al in Br. J. Haematol., 1983, 54, 623. The cultures were maintained in an atmosphere containing 5% carbon dioxide and passaged every 3-4 days at a seeding concentration of 1-2 x 10⁴/ml to ensure that the cells were continually in logarithmic growth phase. Under these conditions, the doubling time for cell growth was 30-36 hours.
10 ml volumes of cell suspension were incubated in 50 ml flasks with each of the ten chelators identified in the Table at a 50 µmol/l iron binding concentration, controls being employed which contained no chelator. 400 µl aliquots were removed in duplicate for growth assessment at 24 hour intervals over the next four days. The experiment was repeated on three separate occasions, the initial cell concentration in each case being 2-3 x 10⁴ cells/ml. Cell growth was assessed both by examination of cultures using light microscopy and by cell counting. At various times throughout each experiment, 400 µl culture was added to 19.6 ml Isoton and the number of particles counted using a Coulter Counter ZN set at threshold 20 and attenuation 0.4
The effect of the different chelators on growth of the MEL cells after 30 hours was compared with the effect produced after a similar time by the same chelators at a 50 µmol/l iron binding concentration using the procedure described in Example 2(A). The results are illustrated in Figure 2. It will be seen that the compounds 2, 3, 4, 5, 6, 9 and 10 inhibited growth of MEL cells and of P. falciparum, the minimum growth inhibition being 80% and 70% respectively. […] When these two groups of chelators were examined together a close linear correlation (r = 0.978) was found between the degree of growth inhibition produced in both types of cell for each chelator studied. The compound 1 was distinguished from all of the other chelators in being the only one to have no significant inhibitory effect on the growth of MEL cells (<10%) whilst at the same time producing a substantial inhibitory effect on the growth of P. falciparum (>75%).

[3] = test system: P. falciparum; test: Red cell reinvasion at the beginning of the second parasite cycle (light microscopy)
Procedure: A study was made of red cells from cultures involving various dosage levels harvested at the beginning of the second parasite cycle, when young rings could be identified in untreated control cultures in order to determine whether or not red cell reinvasion had occurred in the cultures that had been exposed to a chelator. […] However, for the 3-hydroxypyridin-4-one compounds 1 to 6 and 9, young ring parasites were frequently found after incubation at a 25 µmol/l dosage level of the chelator and were always found at a 10 µmol/l dosage level, no significant differences being seen between the different compounds. At 50 µmol/l and 100 µmol/l no evidence of reinvasion was found. Thus, although the 3-hydroxypyridin-4-ones do produce growth inhibition at the lower dosage levels of 10 µmol/l and 25 µmol/l, higher levels than this are required to produce a cytocidal action.

## CC(=O)N(O)CCCCCNC(=O)CCC(=O)N(O)CCCCCNC(=O)CCC(=O)N(O)CCCCCN [compound 10, Desferrioxamine]
[1]; 50 µmol/l iron binding concentration, after 30 hours, Figure 2
  growth inhibition of P. falciparum: ≥ 70%
[1]; Plasmodium falciparum, four dosage levels (iron binding concentration), same procedure as (A), read-out: ID50 (the source's name)
  IC50: 10 to 20 µM
[1]; iron binding concentration of 100 µmol of iron per litre, 30 hours, Figure 1
  percentage inhibition of growth after 30 hours as compared with the controls: more than 65%
[2]
  growth inhibition of MEL cells: ≥ 80%
[3]; 10 µmol/l dosage level
  red cell reinvasion (young ring parasites): always found
[3]; 25 µmol/l dosage level
  red cell reinvasion (young ring parasites): No evidence was found of reinvasion
[3]; 50 µmol/l dosage level
  red cell reinvasion (young ring parasites): No evidence was found of reinvasion
[3]; 100 µmol/l dosage level
  red cell reinvasion (young ring parasites): No evidence was found of reinvasion
